# Reference: patent US10251919B2, “Method for improving skin condition or anti-microorganisms or anti-oxidation using Lactobacillus sakei MD honeysuckle” (AMOREPACIFIC CORPORATION, priority 2015, dated 2019)
# “And” between values parts separate entries of the source, which are not always exact repeats. Equal entries are not always repeated.
# What was measured:
# B16 melanoma cells = experiment: B16 melanoma cell melanin assay (melanogenesis inhibiting ability); assay type: cell-based; details: 100 ppm sample, 200 nM a-MSH; for extracellular OD475 / extracellular melanin / extracellular melanin, % of control / melanin/protein: replicates 1-3
# Procedure: Skin-whitening effect was evaluated as described below. B16 melanoma cells were seeded onto a 12-well plate at a density of 1.5×10^5 cells per well. DMEM (Dulbeco's modified Eagle's medium) supplemented with 10% fetal bovine serum was used and the cells were cultured for 24 hours (10% CO2, 37° C.). The 12-well plate onto which the B16 melanoma cells were seeded was treated with 200 nM melanocyte-stimulating hormone (MSH) and then the 12-well plate was treated with each sample (25, 50, 100 and 200 ppm). The test groups were: a group treated with sonicated identified strain (LBS sonication), a group treated with heat-killed identified strain (LBS heat), and a group treated with cultural filtrate of the identified strain (culture). […] The cells treated with nothing were used as a negative control group and those treated only with MSH was used as a vehicle group. After the treatment, the cell culture (extracellular melanin) was transferred to a 96-well plate and absorbance was measured at 475 nm. […] The calculated melanin content was normalized to the total protein content for each group and the melanogenesis inhibiting ability was evaluated by comparing with the control groups. The experiment was repeated 3 times.
# DPPH assay = assay type: biochemical; details: at 100 μM; 1 mL 0.2 mM DPPH, 30 minutes
# Procedure: L-Ascorbic acid (Sigma Aldrich) was used as a positive control. […] MRS broth not treated with a strain was used as a negative control. After the reaction, OD515 was measured using a spectrophotometer and DPPH radical scavenging activity was calculated according to the following equation. DPPH radical scavenging activity (%)=[(Absorbance of control to which sample was not added)−(Absorbance of group to which sample was added)]/(Absorbance of control to which sample was not added) […] The experiment was conducted 3 times and the average value was obtained.
Compound,"extracellular melanin, % of control (average of 3) (B16 melanoma cells)",extracellular OD475 (B16 melanoma cells),extracellular melanin (B16 melanoma cells),"extracellular melanin, % of control (B16 melanoma cells)",melanin/protein (B16 melanoma cells),DPPH radical scavenging activity (DPPH assay)
OC[C@H]1O[C@@H](Oc2ccc(O)cc2)[C@H](O)[C@@H](O)[C@@H]1O [arbutin],111.1 % of control,0.281 and 0.252 and 0.274,138.50 ppm and 124.00 ppm and 135.00 ppm,116.8 % of control and 106.1 % of control and 110.5 % of control,214.2 µg/mg and 194.5 µg/mg and 202.6 µg/mg,
O=C1O[C@H]([C@@H](O)CO)C(O)=C1O [L-ascorbic acid],,,,,,about 7%
O=c1cc(CO)occ1O [kojic acid],67.3 % of control,0.163,68.00 ppm and 70.00 ppm and 79.50 ppm,65.1 % of control and 65.3 % of control and 71.5 % of control,119.4 µg/mg and 119.7 µg/mg and 131.2 µg/mg,
